This note sets out measurements from ChEMBL document CHEMBL1134077, “Synthesis of potent and selective dopamine D(4) antagonists as candidate radioligands” (Bioorg Med Chem Lett, 2001).

For test [1], the target named is 5-hydroxytryptamine receptor 2A (Homo sapiens, UniProt P28223). The test is described as follows: Binding affinity to cloned human 5-hydroxytryptamine 2A receptor.
In test [2] the target is 5-hydroxytryptamine receptor 7 (Homo sapiens, UniProt P34969). The test is described as follows: In vitro binding affinity to human 5-hydroxytryptamine 7 receptor.
Chain of 5-hydroxytryptamine receptor 7 (P34969 whole entry): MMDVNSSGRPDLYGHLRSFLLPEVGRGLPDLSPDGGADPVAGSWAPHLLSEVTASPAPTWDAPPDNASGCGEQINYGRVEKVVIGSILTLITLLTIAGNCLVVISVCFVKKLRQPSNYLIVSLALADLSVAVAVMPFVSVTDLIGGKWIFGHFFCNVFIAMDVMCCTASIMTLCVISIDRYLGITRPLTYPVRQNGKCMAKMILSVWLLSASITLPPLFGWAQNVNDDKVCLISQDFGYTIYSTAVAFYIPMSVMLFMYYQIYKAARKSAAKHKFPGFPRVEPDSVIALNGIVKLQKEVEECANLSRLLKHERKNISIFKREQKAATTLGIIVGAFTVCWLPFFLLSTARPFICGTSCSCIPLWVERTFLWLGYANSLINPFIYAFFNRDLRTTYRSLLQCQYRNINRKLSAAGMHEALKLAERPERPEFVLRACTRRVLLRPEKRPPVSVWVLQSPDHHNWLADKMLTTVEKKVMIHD
For the next test, the target named is T1, D(4) dopamine receptor (Rattus norvegicus, UniProt P30729).
T1 sequence (P30729 whole entry): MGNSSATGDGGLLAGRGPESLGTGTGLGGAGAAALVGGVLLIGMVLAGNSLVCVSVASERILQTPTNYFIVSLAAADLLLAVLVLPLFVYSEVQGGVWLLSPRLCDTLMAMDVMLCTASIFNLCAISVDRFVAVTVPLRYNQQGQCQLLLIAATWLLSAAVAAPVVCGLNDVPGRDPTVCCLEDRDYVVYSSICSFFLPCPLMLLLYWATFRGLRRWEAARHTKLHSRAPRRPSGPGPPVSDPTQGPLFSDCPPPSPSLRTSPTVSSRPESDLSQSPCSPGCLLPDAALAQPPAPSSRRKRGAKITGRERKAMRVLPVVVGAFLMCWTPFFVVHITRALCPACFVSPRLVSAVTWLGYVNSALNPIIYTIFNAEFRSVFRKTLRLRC
Kind of test: In vitro binding affinity to rat Dopamine receptor D4 measured by displacement of the radioligand [3H]spiperone.

Test [3] has as its target 5-hydroxytryptamine receptor 6 (Homo sapiens, UniProt P50406). The test is described as follows: In vitro binding affinity to human 5-hydroxytryptamine 6 receptor.
The nature of test [4]: Binding affinity to cloned Nicotinic acetylcholine receptors. Set-up: species or system Rattus norvegicus.

Chain of 5-hydroxytryptamine receptor 6 (P50406 whole entry): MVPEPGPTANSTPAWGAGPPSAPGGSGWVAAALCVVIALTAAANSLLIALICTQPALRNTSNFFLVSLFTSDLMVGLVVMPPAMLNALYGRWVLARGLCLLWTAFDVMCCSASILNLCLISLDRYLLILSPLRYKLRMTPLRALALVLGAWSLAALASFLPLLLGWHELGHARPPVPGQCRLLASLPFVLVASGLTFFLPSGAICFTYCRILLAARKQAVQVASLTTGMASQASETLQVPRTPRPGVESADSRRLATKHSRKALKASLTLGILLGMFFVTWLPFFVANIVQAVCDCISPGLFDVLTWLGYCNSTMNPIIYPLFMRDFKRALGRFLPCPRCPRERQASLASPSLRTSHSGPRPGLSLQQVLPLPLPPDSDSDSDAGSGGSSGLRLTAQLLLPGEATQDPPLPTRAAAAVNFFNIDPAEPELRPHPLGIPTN
Chain of 5-hydroxytryptamine receptor 2A (P28223 whole entry): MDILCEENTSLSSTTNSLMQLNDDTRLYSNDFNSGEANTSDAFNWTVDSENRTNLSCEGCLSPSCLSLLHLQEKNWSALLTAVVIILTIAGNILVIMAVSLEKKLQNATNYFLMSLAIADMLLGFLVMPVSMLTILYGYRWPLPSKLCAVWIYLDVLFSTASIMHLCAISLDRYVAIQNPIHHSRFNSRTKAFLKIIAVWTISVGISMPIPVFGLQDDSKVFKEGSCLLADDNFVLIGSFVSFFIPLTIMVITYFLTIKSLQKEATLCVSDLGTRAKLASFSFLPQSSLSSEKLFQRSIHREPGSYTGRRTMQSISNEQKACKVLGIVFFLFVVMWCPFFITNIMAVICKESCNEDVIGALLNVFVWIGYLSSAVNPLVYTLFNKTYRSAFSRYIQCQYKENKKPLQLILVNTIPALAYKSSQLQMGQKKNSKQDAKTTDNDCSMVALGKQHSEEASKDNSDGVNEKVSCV

Usually Ki stands for the dissociation constant of the complex between target and ligand, obtained from inhibition or displacement. Low values mean tighter binding, high ones weaker binding. For `FC(F)(F)c1ccc(N2CCN(Cc3c[nH]c4ncccc34)CC2)cc1`, the Ki in test [1] came to 2790 nM; in test [2] it was 318 nM; at D(4) dopamine receptor, 34.1 nM; in test [3], 7.11 µM.
In the case of `Clc1ccc(N2CCN(Cc3c[nH]c4ncccc34)CC2)cc1` [L-745870], in test [4], the inhibition constant Ki was > 10 µM.
